Test results: patent US6906205B2, “Spiro and dispiro 1,2,4-trioxolane antimalarials” (Medicines for Malaria Venture MMV, priority 2002, dated 2005)

System: ANKA strain of P. berghei
Test: single dose STI in vivo screen in infected mice
Parameters: species or system Plasmodium berghei
Conditions: for Activity (%) 3 mg/kg SSV po / Activity (%) 10 mg/kg SSV po / Activity (%) po / Activity (%) sc / Activity (%) SSVpo: percent reduction in parasitemia day 3 post-infection; for Activity (%) 3 mg/kg SSV po / Survival (days) 3 mg/kg SSV po: single 3 mg/kg po in SSV; for Activity (%) 10 mg/kg SSV po / Survival (days) 10 mg/kg SSV po: single 10 mg/kg po in SSV; for Activity (%) po / Survival (days) po: single 10 mg/kg po in 3% ethanol and 7% Tween 80; for Activity (%) po / Activity (%) sc / Activity (%) SSVpo: mice; for Activity (%) sc / Survival (days) sc: single 10 mg/kg sc in 3% ethanol and 7% Tween 80; for Activity (%) SSVpo: single po dose in standard suspending vehicle (SSV); for Survival (days) SSVpo: single po dose in SSV; for Survival (days) SSVpo / Survival (days) po / Survival (days) sc: untreated control 5.6 ± 0.3
Procedure: In the single dose STI in vivo screen, Moro SPF or NMRI mice infected with the ANKA strain of P. berghei (groups of 3-5 mice) were treated on day one post-infection with trioxolanes dissolved or suspended in 3% ethanol and 7% Tween 80. […] SSV consists of 0.5% w/v CMC, 0.5% v/v benzyl alcohol, 0.4% v/v Tween 80, and 0.9% w/v sodium chloride in water. Antimalarial activity was measured by percent reduction in parasitemia on day three post-infection and survival times compared to an untreated control group. Survival to day 30 post-infection is considered to be a cure. […] Other factors influencing antimalarial activity include the stability of carbon radicals formed by β-scission subsequent to the initial electron transfer to the peroxide bond and the influence of steric effects remote from the peroxide bond on the interactions between carbon radicals and potential drug targets.

Compound | Activity (%) 3 mg/kg SSV po [%] | Activity (%) 10 mg/kg SSV po | Survival (days) 10 mg/kg SSV po | also measured
CCOC(=O)CCNCC1CCC2(CC1)OOC1(O2)C2CC3CC(C2)CC1C3.Cc1ccc(S(=O)(=O)O)cc1 (stereo not drawn) [OZ318] | 29 | 88% |  | 
Cn1ccnc1S(=O)(=O)C[C@H]1CC[C@]2(CC1)OO[C@]1(O2)C2CC3CC(C2)CC1C3 [OZ310] | 38 | 81% | 7.8 days | 
CC(C)(O)[C@H]1CC[C@]2(CC1)OOC1(O2)C2CC3CC(C2)CC1C3 (stereo partly drawn) [OZ108] |  |  |  | Activity (%) po: 0/0/0%; Activity (%) sc: 0/0/0%; Activity (%) SSVpo: 0/0/0%; Survival (days) SSVpo: 5.0 days
Cn1nnnc1S(=O)(=O)C[C@H]1CC[C@]2(CC1)OO[C@]1(O2)C2CC3CC(C2)CC1C3 [OZ332] | 0 | 8% |  | 
FC(F)(F)c1ccc(C2CCC3(CC2)OOC2(O3)C3CC4CC(C3)CC2C4)cc1 (stereo not drawn) [OZ48] |  |  |  | Activity (%) po: 99.8%; Activity (%) sc: 42%; Survival (days) po: 8.7 days; Survival (days) sc: 6.3 days
O=C(N1CCOCC1)N1CCC2(CC1)OOC1(O2)C2CC3CC(C2)CC1C3 (stereo not drawn) [OZ188] |  |  |  | Activity (%) po: 93%; Activity (%) sc: 99.87%; Activity (%) SSVpo: 98%; Survival (days) po: 8.7 days; Survival (days) sc: 9.0 days; Survival (days) SSVpo: 10.0 days
O=C(NC[C@H]1CC[C@]2(CC1)OO[C@]1(O2)C2CC3CC(C2)CC1C3)[C@@H]1CCCN1 [OZ337] | 97 | 99.92% | 8.6 days | Survival (days) 3 mg/kg SSV po: 11.6 days
O=C(NC[C@H]1CC[C@]2(CC1)OO[C@]1(O2)C2CC3CC(C2)CC1C3)N1CCOCC1 [OZ272] | 49 | 98% |  | 
FC(F)(F)c1cccc(C2(c3cccc(C(F)(F)F)c3)OOC3(O2)C2CC4CC(C2)CC3C4)c1 (stereo not drawn) [OZ46] |  |  |  | Activity (%) po: 99%; Activity (%) sc: 62%; Survival (days) po: 7.7 days; Survival (days) sc: 6.0 days
O=C(COc1ccc(Cl)cc1)N1CCC2(CC1)OOC1(O2)C2CC3CC(C2)CC1C3 (stereo not drawn) [OZ101] |  |  |  | Activity (%) po: 44%; Activity (%) sc: 99.97%; Activity (%) SSVpo: 0%; Survival (days) po: 6.3 days; Survival (days) sc: 13 days; Survival (days) SSVpo: 5.3 days
OC[C@H]1CC[C@]2(CC1)OOC1(O2)C2CC3CC(C2)CC1C3 (stereo partly drawn) [OZ119] |  |  |  | Survival (days) SSVpo: 8.0 days
N[C@H]1CC[C@]2(CC1)OO[C@]1(O2)C2CC3CC(C2)CC1C3 [OZ362] | 58 | 98% | 9.8 days | Survival (days) 3 mg/kg SSV po: 7.0 days
CCOC(=O)CCC(=O)N1CCC2(CC1)OOC1(O2)C2CC3CC(C2)CC1C3 (stereo not drawn) [OZ53] |  |  |  | Activity (%) po: 9%; Activity (%) sc: 58%; Survival (days) po: 6.0 days; Survival (days) sc: 6.3 days
N[C@H]1CCN(C(=O)C[C@H]2CC[C@]3(CC2)OO[C@]2(O3)C3CC4CC(C3)CC2C4)C1 [OZ338] | 99.80 | 99.93% | 9.8 days | 
O=C(NC[C@H]1CC[C@]2(CC1)OO[C@]1(O2)C2CC3CC(C2)CC1C3)c1ccccn1 [OZ304] | 61 | 98% | 8.2 days | 
O=C(Nc1ccccc1)N1CCC2(CC1)OOC1(O2)C2CC3CC(C2)CC1C3 (stereo not drawn) [OZ102] |  |  |  | Activity (%) po: 92%; Activity (%) sc: 99.97%; Activity (%) SSVpo: 73%; Survival (days) po: 7.0 days; Survival (days) sc: 19.7 days; Survival (days) SSVpo: 6.7 days
c1c[nH]c(C[C@H]2CC[C@]3(CC2)OO[C@]2(O3)C3CC4CC(C3)CC2C4)n1 [OZ355] | 0 | 71% | 7.0 days | Survival (days) 3 mg/kg SSV po: 6.2 days
O=C(C[C@H]1CC[C@]2(CC1)OO[C@]1(O2)C2CC3CC(C2)CC1C3)N1CCN(c2ncccn2)CC1 [OZ314] | 11 | 13% |  | 
Cc1ccc(S(=O)(=O)O)cc1.N[C@H]1CC[C@H](NC(=O)C[C@H]2CC[C@]3(CC2)OO[C@]2(O3)C3CC4CC(C3)CC2C4)CC1 [OZ315] | 92 |  |  | 
O=C(NC[C@H]1CC[C@]2(CC1)OOC1(O2)C2CC3CC(C2)CC1C3)c1ccccc1O (stereo partly drawn) [OZ280] |  | 0/ND % | 5.7ND days | 

Compound | Activity (%) 3 mg/kg SSV po [%] | Activity (%) 10 mg/kg SSV po | Survival (days) 10 mg/kg SSV po | also measured
c1cncc(NC[C@H]2CC[C@]3(CC2)OO[C@]2(O3)C3CC4CC(C3)CC2C4)c1 [OZ293] | 77 |  | 8.8 days | 
NC(=O)C1CCN(C(=O)C[C@H]2CC[C@]3(CC2)OO[C@]2(O3)C3CC4CC(C3)CC2C4)CC1 [OZ311] | 40 | 80% | 8.6 days | 
CS(=O)(=O)N1CCN(C(=O)C[C@H]2CC[C@]3(CC2)OO[C@]2(O3)C3CC4CC(C3)CC2C4)CC1 [OZ344] | 0 | 17% | 7.8 days | Survival (days) 3 mg/kg SSV po: 7.4 days
CCOC(=O)CCC1CCCCC12OOC1(O2)C2CC3CC(C2)CC1C3 (stereo not drawn) [OZ08] |  |  |  | Activity (%) po: 99.7%; Activity (%) sc: 99.9%; Survival (days) po: 8.0 days; Survival (days) sc: 9.7 days
CS(=O)(=O)C1CCN(C(=O)C[C@H]2CC[C@]3(CC2)OO[C@]2(O3)C3CC4CC(C3)CC2C4)CC1 [OZ345] | 0 | 75% | 9.2 days | Survival (days) 3 mg/kg SSV po: 6.6 days
CS(=O)(=O)CC(=O)NC[C@H]1CC[C@]2(CC1)OO[C@]1(O2)C2CC3CC(C2)CC1C3 [OZ350] | 69 | 99.17% | 10.4 days | Survival (days) 3 mg/kg SSV po: 9.6 days
O=C(NC[C@H]1CC[C@]2(CC1)OOC1(O2)C2CC3CC(C2)CC1C3)c1ccc(O)nc1 (stereo partly drawn) [OZ282] | 53 |  | 8.3 days | 
NC(=O)c1cncn1C[C@H]1CC[C@]2(CC1)OO[C@]1(O2)C2CC3CC(C2)CC1C3 [OZ321] | 64 | 99.77% | 14.0 days | 
O=C(NC[C@H]1CC[C@]2(CC1)OO[C@]1(O2)C2CC3CC(C2)CC1C3)c1cnccn1 [OZ356] | 87 | 99.64% | 8.6 days | Survival (days) 3 mg/kg SSV po: 8.0 days
Cc1ccc(NC(=O)N2CCC3(CC2)OOC2(O3)C3CC4CC(C3)CC2C4)cc1 (stereo not drawn) [OZ142] |  |  |  | Activity (%) po: 0%; Activity (%) sc: 99.98%; Activity (%) SSVpo: 2%; Survival (days) po: 6.0 days; Survival (days) sc: 14.3 days; Survival (days) SSVpo: 6.3 days
O=C(Nc1ccc(Cl)cc1)N1CCC2(CC1)OOC1(O2)C2CC3CC(C2)CC1C3 (stereo not drawn) [OZ192] |  |  |  | Activity (%) po: 38%; Activity (%) sc: 99.98%; Activity (%) SSVpo: 45%; Survival (days) po: 6.0 days; Survival (days) sc: 13.7 days; Survival (days) SSVpo: 7.0 days
O=C(C[C@H]1CC[C@]2(CC1)OO[C@]1(O2)C2CC3CC(C2)CC1C3)N1CCS(=O)(=O)CC1 [OZ342] | 0 | 27% | 6.8 days | 
CCNC(=O)NC[C@H]1CC[C@]2(CC1)OO[C@]1(O2)C2CC3CC(C2)CC1C3 [OZ291] | 34 | 98% | 8.0 days | 
O=C(CNC(=O)c1cccnc1)NC[C@H]1CC[C@]2(CC1)OO[C@]1(O2)C2CC3CC(C2)CC1C3 [OZ316] | 7 | 69% | 10.0 days | 
NS(=O)(=O)c1ccc(NC[C@H]2CC[C@]3(CC2)OO[C@]2(O3)C3CC4CC(C3)CC2C4)cc1 [OZ298] | 98 | 99.95% | 9.4 days | 
O=C(C[n+]1ccccc1)NN=C1CCC2(CC1)OOC1(O2)C2CC3CC(C2)CC1C3.[Cl-] (stereo not drawn) [OZ55] |  |  |  | Activity (%) po: 45%; Activity (%) sc: 97%; Survival (days) po: 6.0 days; Survival (days) sc: 7.3 days
O=S(=O)(C[C@H]1CC[C@]2(CC1)OO[C@]1(O2)C2CC3CC(C2)CC1C3)c1cccc[n+]1[O-] [OZ324] |  | 60% |  | 
CS(=O)(=O)N(CC(N)=O)C[C@H]1CC[C@]2(CC1)OO[C@]1(O2)C2CC3CC(C2)CC1C3 [OZ308] | 30 | 86% | 7.8 days | 
Cn1nnnc1SC[C@H]1CC[C@]2(CC1)OO[C@]1(O2)C2CC3CC(C2)CC1C3 [OZ331] | 66 | 99.47% | 9.0 days | 
N=C(N)NC(=O)C[C@H]1CC[C@]2(CC1)OO[C@]1(O2)C2CC3CC(C2)CC1C3 [OZ341] | 32 | 97% | 8.0 days | 
